Reference: patent publication US9750677B2, “Use of metal complexes which are mimetics of SOD as food agents and as cosmetics” (Universitat de València, priority 2014, dated 2017)
Where “and” joins values, the source holds several entries; their conditions need not be identical. Equal entries are not always repeated.

Test system: Medaka embryos
Test: Survival analysis using Medaka fish embryos, mortality at 72 hours in H2O2
Type: in vivo, Medaka (Oryzias latipes)
Conditions: stage 8 embryos pre-treated 4 days with 100 μM vitamin C, then 72 hours in 22.5 mM H2O2; for mortality, mean (± standard error in text): 6 replicates
Protocol: Individual adults (strain Cab, Carolina Biological Supply, (North Carolina)), were held in tanks with continuous water flow at 27° C., and a photoperiod of 14 hours of light and 10 hours of darkness. The fish were fed twice a day with Artemia nauplii, which were hatched daily from commercial Sanders® cysts, and with dry food once per day.
Fertilized eggs were collected daily, deposited in Yamamoto solution (0.13 M NaCl, 2.7 mM KCl, 1.8 mM CaCl2 and 0.24 mM NaHCO3, pH 7.3) (Yamamoto T., Medaka (killifish): Biology and strains. 1975, Tokyo: Keigaku Pub. Co), and were kept in the incubator at 26° C. The embryo stage was determined according to the description of Iwamatsu (Iwamatsu T., Stages of normal development in the medaka Oryzias latipes. Mech Dev. 2004, Vol. 121, pages 605-618).
Medaka embryos that were in stage 8 (early morula stage, Iwamatsu, 2004) were separated into 2 groups of 60 embryos and one group of 30 embryos. A group of 60 embryos were treated for 4 days with Pytren-4Q+Mn dissolved in Yamamoto solution at a concentration of 250 μM. The other group of 60 embryos were incubated for 4 days in Yamamoto solution. This group was used as a negative control. The group of 30 embryos, positive control group, were treated for 4 days with a Yamamoto solution of vitamin C, an antioxidant compound, at a concentration of 100 μM. After 4 days of incubation, the embryos were washed with Yamamoto solution. The groups of 60 embryos were separated one by one into two groups of 30 embryos. The embryos of all the groups were individually placed into the wells of 96-well plates, each well containing 200 μl of Yamamoto solution with H2O2, at different concentrations depending on the extension of incubation time at which mortality was observed. […] Thirty embryos of each initial group of 60 embryos and the 30 embryos of the group treated with vitamin C were treated with H2O2 Yamamoto solution at a concentration of 22.5 mM. […] Thirty embryos of each initial group of 60 embryos were treated with H2O2 Yamamoto solution at a concentration of 7.5 mM. […]

In the case of `O=C1O[C@H]([C@@H](O)CO)C(O)=C1O` [vitamin C], the “mortality, mean (± standard error in text)” value is reported as 25.99±5.25%, the “mortality, mean (± standard error in text)” value (listed as Vitamin C) is reported as 25.99% and the “mortality, single replicates” value (30 embryos per replicate) is reported as 14.3% and 20.8% (2×) and 40.63% and 43.75% and 15.63%.
